Results as given in ChEMBL document CHEMBL1212929, “Glucosylated deferiprone and its brain uptake: implications for developing glucosylated hydroxypyridinone analogues intended to cross the blood-brain barrier” (J Med Chem, 2010).

Tests used:
[1] = Biodistribution in Dunkin-Hartley guinea pig brain at 800 uM, iv after 20 mins using [3H]mannitol vascular space marker by scintillation counting; assay type: ADME, organism-based, Cavia porcellus; conditions: in vivo
[2] = Biodistribution in Dunkin-Hartley guinea pig brain parenchyma at 800 uM, iv after 20 mins using [3H]mannitol vascular space marker by scintillation counting; assay type: ADME, organism-based, Cavia porcellus; conditions: in vivo

Row | SMILES | Drug uptake [1] [mL/g] | Drug uptake [2] [mL/g]
1 | Cc1c(O[C@@H]2O[C@H](CO)[C@@H](O)[C@H](O)[C@H]2O)c(=O)ccn1C | < 0.001 | < 0.001
2 | Cc1c(O)c(=O)ccn1C [DEFERIPRONE] | 0.052 | 0.044
